Consider 3 compounds from PMC4457528, “Identification of Novel Small Molecule Inhibitors of Oncogenic RET Kinase” (PLoS ONE, 2015).

Like-named read-outs stand apart in the source and are kept apart here. A value given as a limit tells only on which side of the number the result lay.

Holding throughout (test): KinomeScan kinase panel, single concentration 10 µM
Holding throughout (assay type): binding

Test [1] addresses T1, KinomeScan kinase panel (Homo sapiens, UniProt P08922).
T1 construct: purchased DiscoveRx (KinomeScan)
Conditions: read-out: score (%).

Test [2] deals with T2, KinomeScan kinase panel (Homo sapiens, UniProt Q13164).
T2 construct: purchased DiscoveRx (KinomeScan)
T2 sequence (Q13164 whole entry): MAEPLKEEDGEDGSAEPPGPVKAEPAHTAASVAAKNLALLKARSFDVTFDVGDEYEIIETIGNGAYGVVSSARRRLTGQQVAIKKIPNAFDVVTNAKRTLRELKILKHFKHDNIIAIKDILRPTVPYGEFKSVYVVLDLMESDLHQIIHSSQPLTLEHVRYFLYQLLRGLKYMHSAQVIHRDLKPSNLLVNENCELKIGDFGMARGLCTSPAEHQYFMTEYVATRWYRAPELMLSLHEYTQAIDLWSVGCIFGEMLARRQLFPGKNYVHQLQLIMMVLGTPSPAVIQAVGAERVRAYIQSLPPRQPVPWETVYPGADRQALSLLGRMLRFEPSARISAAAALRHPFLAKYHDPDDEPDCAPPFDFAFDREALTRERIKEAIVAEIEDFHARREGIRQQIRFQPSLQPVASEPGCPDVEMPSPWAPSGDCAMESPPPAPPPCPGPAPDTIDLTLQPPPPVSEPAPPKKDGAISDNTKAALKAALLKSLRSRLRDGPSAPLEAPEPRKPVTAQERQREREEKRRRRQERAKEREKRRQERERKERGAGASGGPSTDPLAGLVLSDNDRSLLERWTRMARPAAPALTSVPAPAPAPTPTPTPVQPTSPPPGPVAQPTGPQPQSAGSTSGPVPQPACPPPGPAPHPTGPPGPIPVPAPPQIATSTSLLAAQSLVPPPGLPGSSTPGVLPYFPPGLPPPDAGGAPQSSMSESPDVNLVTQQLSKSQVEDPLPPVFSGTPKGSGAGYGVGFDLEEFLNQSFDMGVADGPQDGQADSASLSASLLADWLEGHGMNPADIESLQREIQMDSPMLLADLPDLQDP
Particulars: ERK5, 10 µM; read-out: score (%).

In test [3] the target is T3, KinomeScan kinase panel (Homo sapiens, UniProt P49336).
T3 construct: purchased DiscoveRx (KinomeScan)
T3 sequence (P49336 whole entry): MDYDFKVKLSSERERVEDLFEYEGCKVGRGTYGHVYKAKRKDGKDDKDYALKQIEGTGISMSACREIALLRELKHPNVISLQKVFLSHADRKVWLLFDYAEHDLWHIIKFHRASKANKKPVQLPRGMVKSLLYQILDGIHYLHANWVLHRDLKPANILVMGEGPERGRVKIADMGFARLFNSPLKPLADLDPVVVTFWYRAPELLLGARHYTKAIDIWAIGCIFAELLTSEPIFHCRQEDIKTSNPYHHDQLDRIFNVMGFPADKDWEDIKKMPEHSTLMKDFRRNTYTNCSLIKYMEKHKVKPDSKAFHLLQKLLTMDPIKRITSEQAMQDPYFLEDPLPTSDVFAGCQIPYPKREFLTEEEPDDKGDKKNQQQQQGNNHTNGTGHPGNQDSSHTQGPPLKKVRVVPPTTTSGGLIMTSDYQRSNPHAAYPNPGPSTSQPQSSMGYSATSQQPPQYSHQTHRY
Conditions: CDK8, 10 µM.

In test [4] the target is T4, KinomeScan kinase panel (Homo sapiens, UniProt O60674).
T4 construct: purchased DiscoveRx (KinomeScan)
Conditions: 10 µM.

For test [5], the target named is T5, KinomeScan kinase panel (Homo sapiens, UniProt Q00536).
T5 construct: purchased DiscoveRx (KinomeScan)
T5 sequence (Q00536 whole entry): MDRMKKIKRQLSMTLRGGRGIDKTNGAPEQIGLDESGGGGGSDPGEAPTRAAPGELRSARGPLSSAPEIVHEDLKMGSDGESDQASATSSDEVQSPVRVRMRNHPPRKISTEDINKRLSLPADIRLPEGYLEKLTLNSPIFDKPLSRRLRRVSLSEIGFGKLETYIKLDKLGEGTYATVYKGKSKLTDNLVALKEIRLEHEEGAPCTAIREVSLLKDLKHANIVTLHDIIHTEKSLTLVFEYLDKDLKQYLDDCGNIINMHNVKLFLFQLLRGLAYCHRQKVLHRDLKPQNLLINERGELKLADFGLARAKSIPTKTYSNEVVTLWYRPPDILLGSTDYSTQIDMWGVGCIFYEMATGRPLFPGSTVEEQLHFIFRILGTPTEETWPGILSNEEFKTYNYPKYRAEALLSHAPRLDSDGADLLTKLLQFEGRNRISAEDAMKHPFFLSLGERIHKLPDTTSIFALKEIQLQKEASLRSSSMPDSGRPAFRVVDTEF
Particulars: PCTK1, 10 µM; read-out: score (%).

The target in test [6] is T6, KinomeScan kinase panel (Homo sapiens, UniProt Q02750).
T6 construct: purchased DiscoveRx (KinomeScan)
T6 sequence (Q02750 whole entry): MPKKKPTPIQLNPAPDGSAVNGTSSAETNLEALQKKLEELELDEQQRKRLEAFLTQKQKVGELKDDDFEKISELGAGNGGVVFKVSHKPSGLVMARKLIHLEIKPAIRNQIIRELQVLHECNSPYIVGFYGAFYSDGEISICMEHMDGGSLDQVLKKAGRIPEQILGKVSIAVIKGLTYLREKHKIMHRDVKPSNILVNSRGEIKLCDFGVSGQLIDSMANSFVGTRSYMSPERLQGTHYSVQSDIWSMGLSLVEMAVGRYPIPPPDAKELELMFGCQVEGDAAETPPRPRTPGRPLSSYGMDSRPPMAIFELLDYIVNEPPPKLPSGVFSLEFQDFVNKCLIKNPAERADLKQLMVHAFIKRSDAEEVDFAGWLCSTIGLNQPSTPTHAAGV
Particulars: MEK1, 10 µM; read-out: score (%).

Test [7] deals with T7, KinomeScan kinase panel (Homo sapiens, UniProt Q8TD19).
T7 construct: purchased DiscoveRx (KinomeScan)
T7 sequence (Q8TD19 1-979): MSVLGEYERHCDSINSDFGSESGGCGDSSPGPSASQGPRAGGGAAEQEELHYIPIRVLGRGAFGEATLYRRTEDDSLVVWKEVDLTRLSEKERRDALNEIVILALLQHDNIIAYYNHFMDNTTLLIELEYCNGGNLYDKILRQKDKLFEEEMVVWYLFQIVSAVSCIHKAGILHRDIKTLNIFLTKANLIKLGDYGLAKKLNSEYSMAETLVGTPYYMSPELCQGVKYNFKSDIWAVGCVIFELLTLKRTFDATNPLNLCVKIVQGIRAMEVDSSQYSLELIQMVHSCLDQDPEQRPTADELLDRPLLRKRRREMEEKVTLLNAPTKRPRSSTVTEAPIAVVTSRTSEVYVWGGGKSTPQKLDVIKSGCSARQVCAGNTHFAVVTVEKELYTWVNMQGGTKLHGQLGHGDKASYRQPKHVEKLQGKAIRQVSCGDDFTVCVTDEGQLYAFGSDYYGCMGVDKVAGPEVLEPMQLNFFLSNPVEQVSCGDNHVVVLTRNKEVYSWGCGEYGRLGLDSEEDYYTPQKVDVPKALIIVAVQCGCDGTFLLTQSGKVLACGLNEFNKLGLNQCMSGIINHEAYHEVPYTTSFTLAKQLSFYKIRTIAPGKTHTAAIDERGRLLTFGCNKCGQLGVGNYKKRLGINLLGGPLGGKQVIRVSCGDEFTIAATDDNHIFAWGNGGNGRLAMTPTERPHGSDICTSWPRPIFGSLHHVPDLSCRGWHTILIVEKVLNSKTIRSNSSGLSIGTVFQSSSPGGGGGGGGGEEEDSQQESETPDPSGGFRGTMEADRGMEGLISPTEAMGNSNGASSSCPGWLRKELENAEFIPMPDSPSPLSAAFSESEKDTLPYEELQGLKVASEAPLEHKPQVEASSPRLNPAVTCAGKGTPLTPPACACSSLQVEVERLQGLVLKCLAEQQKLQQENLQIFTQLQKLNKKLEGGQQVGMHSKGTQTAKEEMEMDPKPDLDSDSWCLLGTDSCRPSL
Particulars: NEK9, 10 µM; read-out: score (%).

Test [8] addresses T8, KinomeScan kinase panel (Homo sapiens, UniProt Q9P1W9).
T8 construct: purchased DiscoveRx (KinomeScan)
Particulars: PIM2, 10 µM; read-out: score (%).

For test [9], the target named is T9, KinomeScan kinase panel (Homo sapiens, UniProt Q7L7X3).
T9 construct: purchased DiscoveRx (KinomeScan)
T9 sequence (Q7L7X3 1-1001): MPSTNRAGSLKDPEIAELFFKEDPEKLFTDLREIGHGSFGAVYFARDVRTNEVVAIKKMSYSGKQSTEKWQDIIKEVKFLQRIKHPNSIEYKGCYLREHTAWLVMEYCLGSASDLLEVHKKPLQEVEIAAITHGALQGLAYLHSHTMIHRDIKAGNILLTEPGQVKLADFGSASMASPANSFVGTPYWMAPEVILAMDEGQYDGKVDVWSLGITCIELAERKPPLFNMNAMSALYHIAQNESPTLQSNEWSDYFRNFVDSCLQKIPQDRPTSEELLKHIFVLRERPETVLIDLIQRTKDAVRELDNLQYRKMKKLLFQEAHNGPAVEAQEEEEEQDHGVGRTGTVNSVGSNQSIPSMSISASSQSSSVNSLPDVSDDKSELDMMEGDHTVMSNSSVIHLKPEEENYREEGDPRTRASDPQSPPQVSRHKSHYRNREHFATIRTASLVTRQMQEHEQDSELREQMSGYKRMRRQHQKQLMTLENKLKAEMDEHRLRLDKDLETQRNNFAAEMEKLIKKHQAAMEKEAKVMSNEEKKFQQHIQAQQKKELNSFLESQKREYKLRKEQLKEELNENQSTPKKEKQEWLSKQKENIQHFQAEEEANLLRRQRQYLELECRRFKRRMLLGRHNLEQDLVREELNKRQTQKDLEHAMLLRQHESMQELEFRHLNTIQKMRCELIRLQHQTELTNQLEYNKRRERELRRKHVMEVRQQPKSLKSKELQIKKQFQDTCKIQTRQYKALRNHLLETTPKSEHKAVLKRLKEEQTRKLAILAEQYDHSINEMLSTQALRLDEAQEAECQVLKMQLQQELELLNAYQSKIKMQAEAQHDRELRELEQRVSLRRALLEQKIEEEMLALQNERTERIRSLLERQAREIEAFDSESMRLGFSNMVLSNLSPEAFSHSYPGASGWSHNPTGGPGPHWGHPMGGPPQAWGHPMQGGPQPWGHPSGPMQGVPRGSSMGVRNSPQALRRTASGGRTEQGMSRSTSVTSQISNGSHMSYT
Particulars: read-out: score (%).

Test [10] addresses T10, KinomeScan kinase panel (Homo sapiens, UniProt P68400).
T10 construct: purchased DiscoveRx (KinomeScan)
Particulars: CSNK2A1, 10 µM; read-out: score (%).

T8 sequence (Q9P1W9 whole entry): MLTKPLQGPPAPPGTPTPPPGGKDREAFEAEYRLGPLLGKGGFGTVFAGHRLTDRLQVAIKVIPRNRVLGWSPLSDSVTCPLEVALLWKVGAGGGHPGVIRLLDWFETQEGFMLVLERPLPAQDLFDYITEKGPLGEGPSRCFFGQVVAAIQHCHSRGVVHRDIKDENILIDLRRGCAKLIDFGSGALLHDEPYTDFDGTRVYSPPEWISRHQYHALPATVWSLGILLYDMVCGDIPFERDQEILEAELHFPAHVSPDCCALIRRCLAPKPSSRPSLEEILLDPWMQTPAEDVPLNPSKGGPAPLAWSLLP
T1 sequence (P08922 28-2347): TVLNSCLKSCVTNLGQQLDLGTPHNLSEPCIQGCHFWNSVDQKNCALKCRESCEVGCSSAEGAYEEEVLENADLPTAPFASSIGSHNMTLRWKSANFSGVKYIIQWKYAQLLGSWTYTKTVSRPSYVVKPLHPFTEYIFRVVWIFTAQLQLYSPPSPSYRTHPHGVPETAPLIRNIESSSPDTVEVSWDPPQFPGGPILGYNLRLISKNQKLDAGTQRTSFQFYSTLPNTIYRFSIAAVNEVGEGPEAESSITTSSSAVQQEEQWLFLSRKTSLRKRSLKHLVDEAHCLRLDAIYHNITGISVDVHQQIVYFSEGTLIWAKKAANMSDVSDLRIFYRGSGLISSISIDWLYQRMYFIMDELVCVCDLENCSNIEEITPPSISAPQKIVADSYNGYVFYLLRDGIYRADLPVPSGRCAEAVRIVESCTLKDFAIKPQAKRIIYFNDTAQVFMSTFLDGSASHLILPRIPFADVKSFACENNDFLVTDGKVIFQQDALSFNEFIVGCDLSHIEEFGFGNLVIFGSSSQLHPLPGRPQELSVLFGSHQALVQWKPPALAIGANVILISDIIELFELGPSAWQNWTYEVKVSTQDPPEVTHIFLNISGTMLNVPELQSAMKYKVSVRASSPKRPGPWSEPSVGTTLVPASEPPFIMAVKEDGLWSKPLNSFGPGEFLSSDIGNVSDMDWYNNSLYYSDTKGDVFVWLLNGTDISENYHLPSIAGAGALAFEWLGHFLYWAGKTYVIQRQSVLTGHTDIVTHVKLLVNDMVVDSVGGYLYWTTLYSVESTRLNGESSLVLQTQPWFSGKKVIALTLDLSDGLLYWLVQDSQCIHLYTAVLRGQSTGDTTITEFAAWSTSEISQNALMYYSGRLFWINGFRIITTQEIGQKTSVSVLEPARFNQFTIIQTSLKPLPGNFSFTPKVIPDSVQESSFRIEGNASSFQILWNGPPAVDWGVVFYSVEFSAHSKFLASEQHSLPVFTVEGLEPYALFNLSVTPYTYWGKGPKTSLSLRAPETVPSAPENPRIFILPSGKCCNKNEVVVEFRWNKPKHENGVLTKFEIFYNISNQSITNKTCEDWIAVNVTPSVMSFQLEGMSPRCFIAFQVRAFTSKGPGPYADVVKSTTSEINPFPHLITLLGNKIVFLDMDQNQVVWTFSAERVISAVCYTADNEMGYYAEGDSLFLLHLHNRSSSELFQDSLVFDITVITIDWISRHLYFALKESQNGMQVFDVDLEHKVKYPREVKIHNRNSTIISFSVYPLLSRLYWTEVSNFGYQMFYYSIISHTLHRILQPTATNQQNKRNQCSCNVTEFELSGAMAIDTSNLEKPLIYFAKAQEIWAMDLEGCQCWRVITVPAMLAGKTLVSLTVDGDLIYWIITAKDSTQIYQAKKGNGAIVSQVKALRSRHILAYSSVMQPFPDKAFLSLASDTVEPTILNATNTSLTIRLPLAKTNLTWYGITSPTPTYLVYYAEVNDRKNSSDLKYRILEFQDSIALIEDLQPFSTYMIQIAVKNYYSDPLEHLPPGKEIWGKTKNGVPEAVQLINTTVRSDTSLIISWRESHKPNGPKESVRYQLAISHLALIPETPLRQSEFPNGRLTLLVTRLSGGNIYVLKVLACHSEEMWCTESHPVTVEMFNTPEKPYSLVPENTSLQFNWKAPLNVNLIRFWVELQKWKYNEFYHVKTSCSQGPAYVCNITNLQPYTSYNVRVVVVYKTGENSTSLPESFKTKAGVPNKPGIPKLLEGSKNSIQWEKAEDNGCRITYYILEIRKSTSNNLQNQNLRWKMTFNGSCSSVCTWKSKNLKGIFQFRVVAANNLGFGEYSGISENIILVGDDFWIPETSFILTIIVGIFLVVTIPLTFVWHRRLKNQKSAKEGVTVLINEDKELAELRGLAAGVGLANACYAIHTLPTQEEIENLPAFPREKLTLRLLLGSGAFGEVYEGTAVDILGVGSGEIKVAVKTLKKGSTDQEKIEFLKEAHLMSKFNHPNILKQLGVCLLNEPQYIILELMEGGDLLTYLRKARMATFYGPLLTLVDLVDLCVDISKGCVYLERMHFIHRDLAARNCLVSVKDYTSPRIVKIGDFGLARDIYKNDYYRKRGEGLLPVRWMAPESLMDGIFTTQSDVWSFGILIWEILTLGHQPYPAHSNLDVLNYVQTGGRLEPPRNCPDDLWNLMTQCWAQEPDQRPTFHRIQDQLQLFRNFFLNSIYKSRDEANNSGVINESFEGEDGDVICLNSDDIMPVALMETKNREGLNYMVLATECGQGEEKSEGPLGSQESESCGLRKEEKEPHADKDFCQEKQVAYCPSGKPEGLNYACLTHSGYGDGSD

As to `CCN1CCN(Cc2ccc(NC(=O)c3ccc(C)c(NC(=O)c4cncc(-c5cccs5)c4)c3)cc2C(F)(F)F)CC1` [ALW-II-41-27], the remaining binding at 10 µM on KinomeScan kinase panel [1] (ROS1, 10 µM) was more than 30%; at KinomeScan kinase panel [2] it was more than 30%; on KinomeScan kinase panel [5], more than 30%; on KinomeScan kinase panel [6] it was more than 30%; on KinomeScan kinase panel [7], more than 30%; on KinomeScan kinase panel [8], 22%. In addition, the remaining binding at 10 µM at KinomeScan kinase panel [9] (kinase TAOK1, 10 µM) is more than 30%; at KinomeScan kinase panel [10], more than 30%. Moreover, the “score (%)” value on KinomeScan kinase panel [3] came out at 20%; on KinomeScan kinase panel [4] (JAK2(JH1domain-catalytic)) it was 11%.

Consider `CCN1CCN(Cc2ccc(NC(=O)c3ccc(C)c(/C=C/c4cnc5[nH]ccc5c4Cl)c3)cc2C(F)(F)F)CC1` [HG-6-63-01, (E)-3-(2-(4-chloro-1H-pyrrolo[2,3-b]pyridin-5-yl)vinyl)-N-(4-((4-ethylpiperazin-1-yl)methyl)-3-(trifluoromethyl)phenyl)-4-methylbenzamide], for which the remaining binding at 10 µM on KinomeScan kinase panel [1] (ROS1, 10 µM) is more than 30%; at KinomeScan kinase panel [2] it was more than 30%; on KinomeScan kinase panel [5], more than 30%; at KinomeScan kinase panel [6] it was more than 30%; on KinomeScan kinase panel [7] it was 28%; at KinomeScan kinase panel [8], more than 30%. The remaining binding at 10 µM was 6.5% on KinomeScan kinase panel [9] (TAOK1, 10 µM) and 15% at KinomeScan kinase panel [10]. Moreover, the “score (%)” value at KinomeScan kinase panel [3] is given as 9.6%; on KinomeScan kinase panel [4] (JAK2(Kin.Dom.2)) it was 12%.

Turning to `CCN1CCN(Cc2ccc(NC(=O)c3ccc(C)c(C#Cc4cccnc4)c3)cc2C(F)(F)F)CC1` [XMD15-44], the remaining binding at 10 µM is 46% on KinomeScan kinase panel [1] (kinase ROS1, 10 µM); more than 30% on KinomeScan kinase panel [2]; 8.4% on KinomeScan kinase panel [5]; more than 30% on KinomeScan kinase panel [6]; 41% at KinomeScan kinase panel [7]; 100% at KinomeScan kinase panel [8]. Also, the remaining binding at 10 µM on KinomeScan kinase panel [9] (kinase TAOK1, 10 µM) is 0.25%; at KinomeScan kinase panel [10], more than 30%. In addition, the “score (%)” value is given as 8.2% at KinomeScan kinase panel [3] and 3% at KinomeScan kinase panel [4] (JAK2(JH1domain-catalytic)).
